Results taken from US8617827B2, “Photoactivable fluorescent dyes for optical microscopy and imaging techniques” (Max-Planck-Gesellschaft zur Foerderung der Wissenschaften …, priority 2009, dated 2013).

What was measured:
[1] = UV absorption and fluorescence spectra in solution; type: physicochemical; settings: for absorption maximum (abs.) / emission maximum (em.): in MeOH, approximate, comparison
[2] = Preparative photolysis in methanol, light >320 nm; type: physicochemical; settings: MeOH, under N2, ambient temperature
Protocol: Diazoketone 10 was subjected to photolysis in methanol in order to study the product distribution. Light with wavelengths >320 nm was used. The result of this experiment is presented in Scheme 6.
NMR spectra were recorded with Varian MERCURY 300 spectrometer at 300 (^1H) and 75.5 MHz (^13C and APT). All spectra are referenced to tetramethylsilane as an internal standard (δ=0 ppm) using the signals of the residual protons of CHCl3 (7.26 ppm) in CDCl3, CHD2OD (3.31 ppm) in CD3OD, HOD (4.79 ppm) in D2O or [D5] DMSO (2.50 ppm) in [D6] DMSO. Multiplicities of signals are described as follows: s=singlet, br. s=broad singlet, d=doublet, br. d=broad doublet, t=triplet, q=quartet, m=multiplet. Coupling constants (J) are given in Hz. Multiplicities in the ^13C NMR spectra were determined by APT (Attached Proton Test) measurements. […] Analytical TLC was performed on MERCK ready-to-use plates with silica gel 60 (F254). […]
Photolysis of diazoketone 10: A solution of compound 10 (70 mg, 0.15 mmol) in MeOH (150 mL) was placed into a reactor for photolysis, and nitrogen was bubbled for 30 min through the solution at room temperature with stirring. Then the lamp was turned on, and the reaction mixture was irradiated at ambient temperature with stirring under N2 for 40 min, until the starting compound could not be detected on TLC. […]

Molecule	UV λmax ([1]; MeCN) [nm]	ε at λmax ([1]; MeCN)	irradiation time until starting compound could not be detected [2] [min]	absorption maximum (abs.) [1]	emission maximum (em.) [1]
CCN(CC)c1ccc2c(c1)Oc1cc(N(CC)CC)ccc1C21C(=[N+]=[N-])C(=O)c2ccccc21 [Compound 10]	241	59700	40	–	–
5/6-carboxy rhodamine Q	–	–	–	ca. 540 nm	about 560 nm
CN(C)c1ccc2c(-c3ccccc3C(=O)[O-])c3ccc(N(C)C)cc3[o+]c2c1 [TMR, N,N,N′,N′-Tetramethylrhodamine]	–	–	–	about 560 nm	ca. 580 nm
CCN(CC)c1ccc2c(-c3ccccc3C(=O)O)c3ccc(=[N+](CC)CC)cc-3oc2c1.[Cl-] [rhodamine B, Rhodamine B]	–	–	–	about 560 nm	ca. 580 nm
